Reference: ChEMBL document CHEMBL1151271, “Phrygiasterol, a cytotoxic cyclopropane-containing polyhydroxysteroid, and related compounds from the pacific starfish Hippasteria phrygiana” (J Nat Prod, 2005)
Converted amounts (≈) assume the structure as drawn.

Key:
Format in all cases: functional, cell-based
Ehrlich = test: Induction of apoptosis in mouse EAC assessed as early apoptotic cell by Hoechst and PI staining
Splenocyte = test: Inhibition of calcium influx in mouse splenocytes
[1] = Cytotoxicity against mouse EAC; details: Ehrlich

CO[C@@H]1[C@@H](O)[C@H](O[C@@H](CC[C@@H](C)[C@H]2C[C@H](O)[C@@H]3[C@]2(C)CC[C@@H]2[C@@]4(C)CC[C@H](O)C[C@@H]4[C@@H](O)C[C@]23O)C(C)C)OC[C@H]1O [BOREALOSIDE C]
EC50 (Ehrlich): 70 µg/mL (≈ 117 µM)
EC50 (Splenocyte): 20 µg/mL (≈ 33.4 µM)

C[C@H](CC[C@@H]1C[C@H]1CO)[C@H]1[C@@H](O)[C@H](O)[C@@H]2[C@]1(C)CC[C@@H]1[C@@]3(C)CC[C@H](O)C[C@@H]3[C@@H](O)C[C@]12O [PHRYGIASTEROL]
IC50 [1]: 50 µg/mL (≈ 107 µM)

CO[C@@H]1[C@@H](O)[C@H](O[C@@H](CC[C@@H](C)[C@H]2C[C@H](O)[C@@H]3[C@]2(C)CC[C@@H]2[C@@]4(C)CC[C@H](O)C[C@@H]4[C@@H](O)C[C@]23O)C(C)C)OC[C@H]1OS(=O)(=O)[O-].[Na+] [PHRYGIOSIDE B]
EC50 (Ehrlich): 70 µg/mL
EC50 (Splenocyte): 20 µg/mL
